Values joined by “and” are separate entries in the source; they are usually repeats but may differ in a detail not shown here. Equal values may be shown once.
Tested on: OVCAR-5 complex spheroids, viability
Test: Anticancer human tumor OVCAR-5 cell line growth inhibition;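 further: spheroids exposed to agents for seven days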;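 on viability, T/C: 100% = DMSO vehicle control wells viability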
Conditions: for viability, T/C: stronger effect = lower value
Method in brief: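 Complex spheroids of tumor cells with HUVEC and human MSCs, exposed to iadademstat combined with other agents. Each agent tested in half-log steps from near clinical Cmax (else 10 microM top), DMSO ≤0.25%.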

[1] = curve of first compound, second compound 0.1 µM
[2] = curve of first compound, second compound 0.316 µM
[3] = curve of first compound, second compound 1 µM
[4] = curve of first compound, second compound 3.16 µM
[5] = curve of first compound, second compound 10 µM
[6] = second compound 0.1 µM, first compound 0.00949 µM
[7] = second compound 0.1 µM, first compound 0.03 µM
[8] = second compound 0.1 µM, first compound 0.0949 µM
[9] = second compound 0.1 µM, first compound 0.3 µM
[10] = second compound 0.1 µM, first compound 0.949 µM
[11] = second compound 0.1 µM, first compound 3 µM
[12] = second compound 0.316 µM, first compound 0.00949 µM
[13] = second compound 0.316 µM, first compound 0.03 µM
[14] = second compound 0.316 µM, first compound 0.0949 µM
[15] = second compound 0.316 µM, first compound 0.3 µM
[16] = second compound 0.316 µM, first compound 0.949 µM
[17] = second compound 0.316 µM, first compound 3 µM
[18] = second compound 1 µM, first compound 0.00949 µM
[19] = second compound 1 µM, first compound 0.03 µM
[20] = second compound 1 µM, first compound 0.0949 µM
[21] = second compound 1 µM, first compound 0.3 µM
[22] = second compound 1 µM, first compound 0.949 µM
[23] = second compound 1 µM, first compound 3 µM
[24] = second compound 3.16 µM, first compound 0.00949 µM
[25] = second compound 3.16 µM, first compound 0.03 µM
[26] = second compound 3.16 µM, first compound 0.0949 µM
[27] = second compound 3.16 µM, first compound 0.3 µM
[28] = second compound 3.16 µM, first compound 0.949 µM
[29] = second compound 3.16 µM, first compound 3 µM
[30] = second compound 10 µM, first compound 0.00949 µM
[31] = second compound 10 µM, first compound 0.03 µM
[32] = second compound 10 µM, first compound 0.0949 µM
[33] = second compound 10 µM, first compound 0.3 µM
[34] = second compound 10 µM, first compound 0.949 µM
[35] = second compound 10 µM, first compound 3 µM

Compound: CC(C)CC(NC(=O)CNC(=O)c1cc(Cl)ccc1Cl)B1OC(=O)CC(CC(=O)O)(C(=O)O)O1 (configuration not stated) + NC1CCC(NC2CC2c2ccccc2)CC1
- IC50 [1]: > 100 nM
- IC50 [2]: > 100 nM
- IC50 [3]: > 100 nM
- IC50 [4]: > 100 nM
- IC50 [5]: > 100 nM
- viability, T/C (second compound 0.1 µM, first compound 0.000316 µM): 96.8%
- viability, T/C (second compound 0.1 µM, first compound 0.001 µM): 95%
- viability, T/C (second compound 0.1 µM, first compound 0.00316 µM): 108%
- viability, T/C (second compound 0.1 µM, first compound 0.01 µM): 91.5%
- viability, T/C (second compound 0.1 µM, first compound 0.0316 µM): 89.7%
- viability, T/C (second compound 0.1 µM, first compound 0.1 µM): 71.8%
- viability, T/C (second compound 0.316 µM, first compound 0.000316 µM): 97.5%
- viability, T/C (second compound 0.316 µM, first compound 0.001 µM): 112%
- viability, T/C (second compound 0.316 µM, first compound 0.00316 µM): 113%
- viability, T/C (second compound 0.316 µM, first compound 0.01 µM): 83.6%
- viability, T/C (second compound 0.316 µM, first compound 0.0316 µM): 85.2%
- viability, T/C (second compound 0.316 µM, first compound 0.1 µM): 70.8%
- viability, T/C (second compound 1 µM, first compound 0.000316 µM): 103%
- viability, T/C (second compound 1 µM, first compound 0.001 µM): 93.7%
- viability, T/C (second compound 1 µM, first compound 0.00316 µM): 110%
- viability, T/C (second compound 1 µM, first compound 0.01 µM): 95.1%
- viability, T/C (second compound 1 µM, first compound 0.0316 µM): 80.7%
- viability, T/C (second compound 1 µM, first compound 0.1 µM): 71.4%
- viability, T/C (second compound 3.16 µM, first compound 0.000316 µM): 101%
- viability, T/C (second compound 3.16 µM, first compound 0.001 µM): 103%
- viability, T/C (second compound 3.16 µM, first compound 0.00316 µM): 95.6%
- viability, T/C (second compound 3.16 µM, first compound 0.01 µM): 76.5%
- viability, T/C (second compound 3.16 µM, first compound 0.0316 µM): 77.7%
- viability, T/C (second compound 3.16 µM, first compound 0.1 µM): 64.6%
- viability, T/C (second compound 10 µM, first compound 0.000316 µM): 98.1%
- viability, T/C (second compound 10 µM, first compound 0.001 µM): 79.8%
- viability, T/C (second compound 10 µM, first compound 0.00316 µM): 89.1%
- viability, T/C (second compound 10 µM, first compound 0.01 µM): 86.7%
- viability, T/C (second compound 10 µM, first compound 0.0316 µM): 76.5%
- viability, T/C (second compound 10 µM, first compound 0.1 µM): 56.6%

Compound: CC(C)CC(NC(=O)C(Cc1ccccc1)NC(=O)c1cnccn1)B(O)O (configuration not stated)
- viability, T/C (compound 0.000316 µM): 101% and 95.8%
- viability, T/C (compound 0.001 µM): 108% and 93.7%
- viability, T/C (compound 0.00316 µM): 79.5% and 72.4%
- viability, T/C (compound 0.01 µM): 44.7% and 39.4%
- viability, T/C (compound 0.0316 µM): 19.9% and 15.4%
- viability, T/C (compound 0.1 µM): 10% and 7.18%
- IC50 (curve of compound): 8.4 nM and 6.94 nM

Compound: NS(=O)(=O)OCC1CC(n2ccc3c(NC4CCc5ccccc54)ncnc32)CC1O (configuration not stated) + NC1CCC(NC2CC2c2ccccc2)CC1
- IC50 [1]: 202 nM
- IC50 [2]: 223 nM
- IC50 [3]: 221 nM
- IC50 [4]: 179 nM
- IC50 [5]: 152 nM
- viability, T/C [6]: 122%
- viability, T/C [7]: 118%
- viability, T/C [8]: 76%
- viability, T/C [9]: 36.6%
- viability, T/C [10]: 16.2%
- viability, T/C [11]: 9.81%
- viability, T/C [12]: 139%
- viability, T/C [13]: 126%
- viability, T/C [14]: 84.8%
- viability, T/C [15]: 38.4%
- viability, T/C [16]: 15.5%
- viability, T/C [17]: 10.6%
- viability, T/C [18]: 108%
- viability, T/C [19]: 98.6%
- viability, T/C [20]: 80.8%
- viability, T/C [21]: 38.2%
- viability, T/C [22]: 17.9%
- viability, T/C [23]: 10.7%
- viability, T/C [24]: 98.8%
- viability, T/C [25]: 105%
- viability, T/C [26]: 69.2%
- viability, T/C [27]: 33.5%
- viability, T/C [28]: 16.4%
- viability, T/C [29]: 9.81%
- viability, T/C [30]: 101%
- viability, T/C [31]: 79.3%
- viability, T/C [32]: 64.7%
- viability, T/C [33]: 34%
- viability, T/C [34]: 14.3%
- viability, T/C [35]: 8.62%

Compound: Nc1ccccc1NC(=O)c1ccc(CNC(=O)OCc2cccnc2)cc1 + NC1CC1c1ccc(-c2cccc(O)c2)cc1
- IC50 [1]: 123 nM
- IC50 [2]: 174 nM
- IC50 [3]: 145 nM
- IC50 [4]: 111 nM
- IC50 [5]: 123 nM
- viability, T/C [6]: 83.1%
- viability, T/C [7]: 71.6%
- viability, T/C [8]: 54.5%
- viability, T/C [9]: 34.8%
- viability, T/C [10]: 19.2%
- viability, T/C [11]: 8.11%
- viability, T/C [12]: 84.9%
- viability, T/C [13]: 79.7%
- viability, T/C [14]: 65.3%
- viability, T/C [15]: 35.5%
- viability, T/C [16]: 19.4%
- viability, T/C [17]: 8.17%
- viability, T/C [18]: 75.6%
- viability, T/C [19]: 65.9%
- viability, T/C [20]: 62.2%
- viability, T/C [21]: 32.4%
- viability, T/C [22]: 19.8%
- viability, T/C [23]: 8.19%
- viability, T/C [24]: 84%
- viability, T/C [25]: 68.6%
- viability, T/C [26]: 55.5%
- viability, T/C [27]: 30.6%
- viability, T/C [28]: 17.8%
- viability, T/C [29]: 7.56%
- viability, T/C [30]: 79.6%
- viability, T/C [31]: 71.3%
- viability, T/C [32]: 55.5%
- viability, T/C [33]: 32.1%
- viability, T/C [34]: 19.5%
- viability, T/C [35]: 9.48%

Source: PubChem BioAssay AID1918956 (Molecular Pharmacology Branch, DTP, NCI, 2023)
